Assay results from publication PMC2362044, “A potent nonporphyrin class of photodynamic therapeutic agent: cellular localisation, cytotoxic potential and influence of hypoxia” (British Journal of Cancer, 2005).
Read-outs that look alike come from different tables or passages of the source. Blank lines part the entries; values can stand above or below the compound they belong to.

Legend:
A2780 cells = test: Colorimetric survival (MTT) assay after photo-irradiation, normoxia; format: cell-based; conditions: Homo sapiens, A2780, 3 h incubation
Protocol: (§1) All cell lines unless otherwise stated were obtained from the American Type Culture Collection. HeLa, MRC5, HT-1080, MDA-MB-231, MCF-7 and T47-D cells were cultured in minimum essential medium (MEM) supplemented with 10% (v v^−1) foetal calf serum (FCS), 1% (v v^−1) non-essential amino acids, 50 U ml^−1 penicillin, 50 μg ml^−1 streptomycin, 20 mM HEPES and 1% (v v^−1) L-glutamine (Gibco-BRL). SW480, SW620 (obtained from Professor D Croke, Royal College of Surgeons, Dublin), A2780 and A2780cp70 cells (Obtained from Professor R Brown, Cancer Research UK, Beatson Laboratories, Glasgow) were cultured in RPMI-1640 medium plus the above-mentioned supplements. All cells were maintained in 5% CO2 (v v^−1) and 21% O2 (v v^−1) at 37°C unless otherwise stated.
(§2) Cells were seeded in 96-well flat-bottomed microtitre plates (5000 cells well^−1) and incubated at 37°C in a 5% CO2 incubator for 24 h. Cells were then incubated with varying concentrations of photosensitiser (1 × 10^−9 to 1 × 10^−4 M) in the dark for 3 h at 37°C. The ADPM compound-laden medium was then removed, the cells were washed with PBS and fresh culture medium was added to each well. This was followed by light irradiation with a broad-spectrum red light source (600–750 nm) via a Waldmann PDT1200L light delivery system. For this study, fluences (light exposures) of either 8 or 16 J cm^−2, at a dose rate of 80 mW cm^−2, were used. Following irradiation, the cells were incubated for a further 48 h before being assessed for cell viability by a standard MTT assay (Sigma). The subsequent colour change produced by viable cells was quantified using a plate reader (VICTOR^2 1420 multilabel HTS counter, Wallac). […] The dark toxicity of each compound was also assessed.
(§3) Prism ([…]) was used to graph the data obtained from the MTT assays and the uptake/clearance experiments. This program allows nonlinear regression analysis and the generation of sigmoidal dose–response curves. Prism also automatically calculates EC50 values. Statistical analysis was performed using the ANOVA test (Prism). Significant differences were detected using the Bonferroni multiple comparison test. P-values <0.05 were considered statistically significant.

MCF-7 cells = test: as above; format: cell-based; conditions: Homo sapiens, MCF7, MCF-7, 3 h incubation
Protocol: as §1, §2, §3

MRC-5 cells = test: as above; format: cell-based; conditions: Homo sapiens, MRC5, MRC-5, normoxia 21% oxygen, 3 h incubation
Protocol: as §1, §2, §3

SW620 cells = test: as above; format: cell-based; conditions: Homo sapiens, SW-620, SW620, 3 h incubation
Protocol: as §1, §2, §3

HeLa cells [1] = test: MTT cell viability assay under hypoxic conditions (1% oxygen); format: cell-based, human; conditions: hypoxia 1% oxygen; for EC50: Homo sapiens
Protocol: (§4) Cells were exposed to low oxygen conditions in a hypoxia chamber (Coy Labs). Exponentially growing cells plus media were equilibrated in the hypoxia chamber for 24 h. The hypoxia chamber consisted of an airtight glove box, with the atmosphere continuously monitored by an oxygen analyser. An oxygen concentration of 1% was maintained throughout the chamber, with the balance comprised of 5% CO2, nitrogen and water vapour from a humidified chamber.
as §2
(§5) For cell viability experiments performed under hypoxic conditions, cells were cultured in a hypoxia chamber as described above. Varying concentrations of ADPM compounds were made using medium equilibrated within the hypoxic environment. After 3 h, the medium containing photosensitiser was removed, the cells were washed with PBS to remove excess compound and fresh, equilibrated medium was added to each well. This was followed by light irradiation under hypoxic conditions with the broad-spectrum red light source as before.
as §3

MRC5 cells [2] = test: as above; format: cell-based, human; conditions: MRC5, hypoxia 1% oxygen; for EC50: Homo sapiens
Protocol: as §4, §2, §5, §3

human tumour cell lines = test: Light-induced toxicity (MTT) assays over a broad range of cell lines; format: cell-based; conditions: for EC50: Homo sapiens, read-out: EC50 values, range between the different cell lines; for EC50 values, light-induced toxicity (in words): broad range of human tumour cell lines
Protocol: as §1, §2, §3

HeLa cells [3] = test: Flow cytometric assessment of apoptosis (Annexin-V/PI); format: cell-based, human
Protocol: (§6) Evaluation of apoptotic and necrotic cell populations was achieved using the ApoTarget Annexin-V FITC Apoptosis kit (BioSource International, Inc.). Cells (2.0 × 10^5) were seeded into 25 cm^2 flasks and treated with either ADPM01 or ADPM06 at respective EC50 or 10-fold EC50 concentration levels for 3 h, followed by irradiation with red light at 16 J cm^−2, as described above. Subsequently, cells were incubated for 4 and 16 h, with floating and adherent cells being collected at each time point by centrifugation and then stained with Annexin-V and propidium iodide (PI) as per the manufacturer's instructions. The percentage of cells at different phases of cell death, namely nonapoptotic (Annexin-V^−/PI^−), early apoptotic (Annexin-V^+/PI^−), and necrotic or late-stage apoptotic (Annexin-V^+/PI^+), was quantified using a EPICS XL-MCL flow cytometer (Coulter) and analysed using System II software, with at least 5000 cells being analysed for each run.

MRC5 cells [4] = test: as above; format: cell-based, human
Protocol: as §6

[5] = design: method as in Gorman et al, 2004; conditions: ref Gorman et al, 2004, cited from earlier work; for strong absorbance band: formulated in CrEL/PBS
[6] = 0 J cm^−2, read-out: EC50 (M) (dark)
[7] = 8 J cm^−2, read-out: EC50 (M) (8 J cm^−2)
[8] = 16 J cm^−2, read-out: EC50 (M) (16 J cm^−2)
[9] = 8 J cm^−2, all cell lines of Table 1
[10] = 16 J cm^−2, all cell lines of Table 1
[11] = 10-fold EC50 concentration, 16 h post-irradiation
[12] = EC50 concentration, 4 h post-irradiation
[13] = MRC5, 10-fold EC50 concentration, 16 h post-irradiation
[14] = MRC5, EC50 concentration, 4 h post-irradiation

- EC50 (HeLa cells [1]; [6]): > 0.0001 M
- EC50 (HeLa cells [1]; [7]): > 0.0001 M
- EC50 (HeLa cells [1]; [8]): > 0.0001 M
SMILES: F[B-]1(F)n2c(-c3ccccc3)cc(-c3ccccc3)c2N=C2C(c3ccccc3)=CC(c3ccccc3)=[N+]21 [ADPM01]
- EC50 (A2780 cells; [6]): > 0.0001 M
- EC50 (A2780 cells; [7]): 5.1e-06 M
- EC50 (A2780 cells; [8]): 4.5e-06 M
- EC50 (MCF-7 cells; [6]): > 0.0001 M
- EC50 (MCF-7 cells; [7]): 3.4e-06 M
- EC50 (MCF-7 cells; [8]): 1.9e-06 M
- EC50 (MRC-5 cells; [6]): > 0.0001 M
- EC50 (MRC-5 cells; [7]): 3.1e-06 M
- EC50 (MRC-5 cells; [8]): 5e-07 M
- EC50 (SW620 cells; [6]): > 0.0001 M
- EC50 (SW620 cells; [7]): 5.6e-06 M
- EC50 (SW620 cells; [8]): 2.8e-06 M
- efficacy (light-induced activity) at 1% oxygen level vs normoxia (HeLa cells [1]): completely ablated
- EC50 (MRC5 cells [2]; [6]): > 0.0001 M
- EC50 (MRC5 cells [2]; [7]): > 0.0001 M
- EC50 (MRC5 cells [2]; [8]): > 0.0001 M
- efficacy (light-induced activity) at 1% oxygen level vs normoxia (MRC5 cells [2]): completely ablated
- EC50 (human tumour cell lines; [9]): 2800 to 34000 nM
- EC50 (human tumour cell lines; [10]): 260 to 22000 nM
- EC50 values, light-induced toxicity (in words) (human tumour cell lines): micro-molar range
- cells in lower left quadrant (Annexin-V−/PI−, nonapoptotic) (HeLa cells [3]; [11]): 42.5%
- cells in lower right quadrant (Annexin-V+/PI−, early apoptotic) (HeLa cells [3]; [11]): 16.5%
- cells in upper left quadrant (PI+, Annexin-V−) (HeLa cells [3]; [11]): 1.0%
- cells in upper right quadrant (Annexin-V+/PI+, necrotic or late-stage apoptotic) (HeLa cells [3]; [11]): 40.0%
- cells in lower left quadrant (Annexin-V−/PI−, nonapoptotic) (HeLa cells [3]; [12]): 95.3%
- cells in lower right quadrant (Annexin-V+/PI−, early apoptotic) (HeLa cells [3]; [12]): 4.40%
- cells in upper left quadrant (PI+, Annexin-V−) (HeLa cells [3]; [12]): 0.16%
- cells in upper right quadrant (Annexin-V+/PI+, necrotic or late-stage apoptotic) (HeLa cells [3]; [12]): 0.12%
- cells in lower left quadrant (Annexin-V−/PI−, nonapoptotic) (MRC5 cells [4]; [13]): 26.9%
- cells in lower right quadrant (Annexin-V+/PI−, early apoptotic) (MRC5 cells [4]; [13]): 31.8%
- cells in upper left quadrant (PI+, Annexin-V−) (MRC5 cells [4]; [13]): 0.5%
- cells in upper right quadrant (Annexin-V+/PI+, necrotic or late-stage apoptotic) (MRC5 cells [4]; [13]): 40.8%
- cells in lower left quadrant (Annexin-V−/PI−, nonapoptotic) (MRC5 cells [4]; [14]): 94.1%
- cells in lower right quadrant (Annexin-V+/PI−, early apoptotic) (MRC5 cells [4]; [14]): 3.82%
- cells in upper left quadrant (PI+, Annexin-V−) (MRC5 cells [4]; [14]): 0.84%
- cells in upper right quadrant (Annexin-V+/PI+, necrotic or late-stage apoptotic) (MRC5 cells [4]; [14]): 1.28%
- strong absorbance band [5]: 658 nm
- fluorescence quantum yield (Φf) [5]: 0.34

- EC50 (HeLa cells [1]; [6]): > 0.0001 M
- EC50 (HeLa cells [1]; [7]): 6.1e-06 M
- EC50 (HeLa cells [1]; [8]): 1.5e-06 M
SMILES: COc1ccc(C2=[N+]3C(=Nc4c(-c5ccccc5)c(Br)c(-c5ccc(OC)cc5)n4[B-]3(F)F)C(c3ccccc3)=C2Br)cc1 [ADPM06]
- EC50 (A2780 cells; [7]): 1e-07 M
- EC50 (A2780 cells; [8]): 3.5e-08 M
- EC50 (MCF-7 cells; [7]): 1.2e-07 M
- EC50 (MCF-7 cells; [8]): 7.5e-08 M
- EC50 (MRC-5 cells; [6]): > 0.0001 M
- EC50 (MRC-5 cells; [7]): 3.7e-08 M
- EC50 (MRC-5 cells; [8]): 1.4e-08 M
- EC50 (SW620 cells; [7]): 7.5e-08 M
- EC50 (SW620 cells; [8]): 6e-08 M
- efficacy (light-induced activity) at 1% oxygen level vs normoxia (HeLa cells [1]): only a partial reduction in light-induced activity
- EC50 (MRC5 cells [2]; [6]): > 0.0001 M
- EC50 (MRC5 cells [2]; [7]): 7.1e-06 M
- EC50 (MRC5 cells [2]; [8]): 1.6e-06 M
- efficacy (light-induced activity) at 1% oxygen level vs normoxia (MRC5 cells [2]): only a partial reduction in light-induced activity
- EC50 (human tumour cell lines; [9]): 37 to 5400 nM
- EC50 (human tumour cell lines; [10]): 14 to 630 nM
- EC50 values, light-induced toxicity (in words) (human tumour cell lines): nano-molar range
- cells in lower left quadrant (Annexin-V−/PI−, nonapoptotic) (HeLa cells [3]; [11]): 42.3%
- cells in lower right quadrant (Annexin-V+/PI−, early apoptotic) (HeLa cells [3]; [11]): 34.1%
- cells in upper left quadrant (PI+, Annexin-V−) (HeLa cells [3]; [11]): 0.6%
- cells in upper right quadrant (Annexin-V+/PI+, necrotic or late-stage apoptotic) (HeLa cells [3]; [11]): 23.0%
- cells in lower left quadrant (Annexin-V−/PI−, nonapoptotic) (HeLa cells [3]; [12]): 95.6%
- cells in lower right quadrant (Annexin-V+/PI−, early apoptotic) (HeLa cells [3]; [12]): 3.88%
- cells in upper left quadrant (PI+, Annexin-V−) (HeLa cells [3]; [12]): 0.20%
- cells in upper right quadrant (Annexin-V+/PI+, necrotic or late-stage apoptotic) (HeLa cells [3]; [12]): 0.30%
- cells in lower left quadrant (Annexin-V−/PI−, nonapoptotic) (MRC5 cells [4]; [13]): 28.6%
- cells in lower right quadrant (Annexin-V+/PI−, early apoptotic) (MRC5 cells [4]; [13]): 45.4%
- cells in upper left quadrant (PI+, Annexin-V−) (MRC5 cells [4]; [13]): 0.7%
- cells in upper right quadrant (Annexin-V+/PI+, necrotic or late-stage apoptotic) (MRC5 cells [4]; [13]): 25.3%
- cells in lower left quadrant (Annexin-V−/PI−, nonapoptotic) (MRC5 cells [4]; [14]): 95.9%
- cells in lower right quadrant (Annexin-V+/PI−, early apoptotic) (MRC5 cells [4]; [14]): 2.84%
- cells in upper left quadrant (PI+, Annexin-V−) (MRC5 cells [4]; [14]): 0.38%
- cells in upper right quadrant (Annexin-V+/PI+, necrotic or late-stage apoptotic) (MRC5 cells [4]; [14]): 0.88%
- strong absorbance band [5]: 683 nm
- fluorescence quantum yield (Φf) [5]: 0.1
